From paper PMC9784055, “Meroterpenoids and Steroids from the Marine-Derived Fungus Trametes sp. ZYX-Z-16” (Molecules, 2022)
Values after ≈ are worked out from the molar mass of the structure shown.

Experiments:
[1] = system: T1, Bacillus subtilis; assay: microbe, parasite or virus in culture; set-up: antibacterial 96-well microtiter plate assay, visible growth, 37 °C; settings: 12 h
T1 construct: ATCC 6633
Text: (§1) Four bacteria (Staphylococcus aureus ATCC6538, Bacillus subtilis ATCC 6633, Escherichia coli ATCC 25922, and Listeria monocytogenes ATCC 1911) were used for antibacterial evaluation for all compounds, referring to the previous method with ampicillin as a positive control. […] Five phytopathogens (Fusarium oxysporum f. sp. cubense, Fusarium spp., Peronophythora litchii, Colletotrichum gloeosporioides, and Hylocereus undatus) were used for antifungal evaluation for all compounds, referring to the previous broth microdilution method with carbendazim as a positive control. […] Each test was performed in triplicate. The inhibitory activity of all compounds against four bacteria (Staphylococcus aureus ATCC6538, Bacillus subtilis ATCC 6633, Escherichia coli ATCC 25922, and Listeria monocytogenes ATCC 1911) was evaluated using the 96-well microtiter plates method.

[2] = system: T2, Listeria monocytogenes; assay: microbe, parasite or virus in culture; set-up: antibacterial 96-well microtiter plate assay, visible growth, 37 °C; settings: 12 h
T2 construct: ATCC 1911
Text: as §1

[3] = system: T3, Escherichia coli; assay: microbe, parasite or virus in culture; set-up: antibacterial 96-well microtiter plate assay, visible growth, 37 °C; settings: 12 h
T3 construct: ATCC 25922
Text: as §1

[4] = system: T4, Staphylococcus aureus; assay: microbe, parasite or virus in culture; set-up: antibacterial 96-well microtiter plate assay, visible growth, 37 °C; settings: 12 h
T4 construct: ATCC 6538
Text: as §1

[5] = system: Fusarium spp.; assay: microbe, parasite or virus in culture; settings: 48 h, read-out: Fusarium spp. MIC
Method: (§2) Four bacteria (Staphylococcus aureus ATCC6538, Bacillus subtilis ATCC 6633, Escherichia coli ATCC 25922, and Listeria monocytogenes ATCC 1911) were used for antibacterial evaluation for all compounds, referring to the previous method with ampicillin as a positive control. The bacteria inhibitory activity of all compounds was observed after 12 h in a constant temperature incubator at 37 °C. Five phytopathogens (Fusarium oxysporum f. sp. cubense, Fusarium spp., Peronophythora litchii, Colletotrichum gloeosporioides, and Hylocereus undatus) were used for antifungal evaluation for all compounds, referring to the previous broth microdilution method with carbendazim as a positive control. The fungal inhibitory activity of all compounds was observed after 48 h in a constant temperature incubator at 28 °C. […] Each test was performed in triplicate.

[6] = system: Colletotrichum gloeosporioides; assay: microbe, parasite or virus in culture; set-up: antifungal broth microdilution, visible growth, 28 °C; settings: 48 h
Method: as §2, with “triplicate. The inhibitory activities of all compounds against five phytopathogenic fungi (Fusarium oxysporum f. sp. cubense, Fusarium spp., Peronophythora litchii, Colletotrichum gloeosporioides, and Hylocereus undatus) were evaluated using the broth microdilution method.” for “triplicate.”

[7] = system: Fusarium oxysporum f. sp. cubense; assay: microbe, parasite or virus in culture; set-up: antifungal broth microdilution, visible growth, 28 °C; settings: 48 h
Method: as §2, with “triplicate. The inhibitory activities of all compounds against five phytopathogenic fungi (Fusarium oxysporum f. sp. cubense, Fusarium spp., Peronophythora litchii, Colletotrichum gloeosporioides, and Hylocereus undatus) were evaluated using the broth microdilution method.” for “triplicate.”

[8] = system: Peronophythora litchii; assay: microbe, parasite or virus in culture; set-up: antifungal broth microdilution, visible growth, 28 °C; settings: Phytophthora litchii, 48 h
Method: as §2, with “triplicate. The inhibitory activities of all compounds against five phytopathogenic fungi (Fusarium oxysporum f. sp. cubense, Fusarium spp., Peronophythora litchii, Colletotrichum gloeosporioides, and Hylocereus undatus) were evaluated using the broth microdilution method.” for “triplicate.”

[9] = target: α-glucosidase; assay: α-glucosidase inhibition assay with p-NPG as substrate; format: biochemical

Question: Which MIC [1] does the source give for CC1(C)S[C@@H]2[C@H](NC(=O)[C@H](N)c3ccccc3)C(=O)N2[C@H]1C(=O)O [Ampicillin] here?
Answer: < 1 µg/mL

Question: What about the MIC [2] of the same compound?
Answer: < 1 µg/mL

Question: And the MIC [3]?
Answer: < 1 µg/mL

Question: And the MIC [4]?
Answer: < 1 µg/mL

Question: Which results are given for COC(=O)Nc1nc2ccccc2[nH]1 [Carbendazim]?
Answer: MIC [5]: < 1 µg/mL; MIC [6]: < 1 µg/mL; MIC [7]: < 1 µg/mL; MIC [8]: < 1 µg/mL

Question: What does the source list for COC(=O)C1C(=O)C(C)=C2OC3(CC2(C)C1C)C(C)C(O)CC1C(C)(C)OC(=O)CCC13C (stereo not shown) [compound 1, asnovolin H]?
Answer: MIC [5]: > 128 µg/mL; MIC [1]: > 128 µg/mL; MIC [2]: > 128 µg/mL; MIC [3]: > 128 µg/mL; MIC [4]: > 128 µg/mL; MIC [6]: > 128 µg/mL; MIC [7]: > 128 µg/mL; MIC [8]: > 128 µg/mL

Question: What does the source list for CC1=C2O[C@@]3(C[C@]2(C)C(C)=C(C(=O)O)C1=O)[C@@H](C)CC[C@H]1C(C)(C)OC(=O)CC[C@@]13C [compound 2, asnovolin I]?
Answer: MIC [5]: > 128 µg/mL; MIC [1]: > 128 µg/mL; MIC [2]: > 128 µg/mL; MIC [3]: > 128 µg/mL; MIC [4]: > 128 µg/mL; MIC [6]: > 128 µg/mL; MIC [7]: > 128 µg/mL; MIC [8]: > 128 µg/mL

Question: COC(=O)C1=C(C)C2(C)CC3(OC2=C(C)C1=O)C(C)CCC1C(C)(C)OC(=O)CCC13C (stereo not shown) [compound 3, asnovolin C 5′6′-dehydro hydrogen] was tested. Which MIC [5] did it give?
Answer: > 128 µg/mL

Question: And the MIC [1]?
Answer: > 128 µg/mL

Question: And the MIC [2]?
Answer: > 128 µg/mL

Question: What about the MIC [3] of the same compound?
Answer: > 128 µg/mL

Question: And the MIC [4]?
Answer: > 128 µg/mL

Question: And the MIC [6]?
Answer: > 128 µg/mL

Question: And the MIC [7]?
Answer: > 128 µg/mL

Question: And the MIC [8]?
Answer: > 128 µg/mL

Question: How did the MIC [5] turn out when COC(=O)CC[C@@]1(C)[C@H](C(C)(C)O)CC[C@H](C)[C@@]12C[C@@]1(C)C(=C(C)C(=O)[C@@H](C(=O)OC)[C@@H]1C)O2 [compound 4, asnovolin C] was run?
Answer: > 128 µg/mL

Question: What about the MIC [1] of the same compound?
Answer: > 128 µg/mL

Question: What about the MIC [2] of the same compound?
Answer: > 128 µg/mL

Question: What about the MIC [3] of the same compound?
Answer: > 128 µg/mL

Question: And the MIC [4]?
Answer: > 128 µg/mL

Question: And the MIC [6]?
Answer: > 128 µg/mL

Question: What about the MIC [7] of the same compound?
Answer: > 128 µg/mL

Question: And the MIC [8]?
Answer: > 128 µg/mL

Question: CC1=CC(=O)C(C)=C2O[C@@]3(C[C@]12C)[C@@H](C)CC[C@H]1C(C)(C)[C@@H](O)CC[C@@]13C [compound 5, chermesin A] was tested. Which MIC [5] did it give?
Answer: > 128 µg/mL

Question: What about the MIC [1] of the same compound?
Answer: > 128 µg/mL

Question: What about the MIC [2] of the same compound?
Answer: > 128 µg/mL

Question: And the MIC [3]?
Answer: > 128 µg/mL

Question: And the MIC [4]?
Answer: 128 µg/mL (≈ 344 µM)

Question: What about the MIC [6] of the same compound?
Answer: > 128 µg/mL

Question: And the MIC [7]?
Answer: > 128 µg/mL

Question: What about the MIC [8] of the same compound?
Answer: > 128 µg/mL

Question: What does the source list for C[C@@H]1Cc2c3c(cc(O)c2C(=O)O1)O[C@@]1(C)[C@@H](O)C[C@H]2C(C)(C)C(=O)C=C[C@]2(C)[C@@H]1C3 [compound 6, chrodrimanin E]?
Answer: MIC [5]: > 128 µg/mL; MIC [1]: > 128 µg/mL; MIC [2]: > 128 µg/mL; MIC [3]: > 128 µg/mL; MIC [4]: > 128 µg/mL; MIC [6]: > 128 µg/mL; MIC [7]: > 128 µg/mL; MIC [8]: > 128 µg/mL

Question: What does the source list for C[C@@H]1Cc2c3c(cc(O)c2C(=O)O1)O[C@@]1(C)[C@@H](O)C[C@H]2C(C)(C)C(=O)CC[C@]2(C)[C@@H]1C3 [compound 7, chrodrimanin H]?
Answer: MIC [5]: > 128 µg/mL; MIC [1]: > 128 µg/mL; MIC [2]: > 128 µg/mL; MIC [3]: > 128 µg/mL; MIC [4]: > 128 µg/mL; MIC [6]: > 128 µg/mL; MIC [7]: > 128 µg/mL; MIC [8]: > 128 µg/mL

Question: With CC(=O)O[C@@H]1c2c3c(cc(O)c2C(=O)O[C@@H]1C)O[C@]1(C)[C@H](C3)[C@@]2(C)CCC(=O)C(C)(C)[C@@H]2C[C@@H]1O [compound 8, thailandolide B] as the compound, how does the MIC [5] read?
Answer: > 128 µg/mL

Question: And the MIC [1]?
Answer: > 128 µg/mL

Question: What about the MIC [2] of the same compound?
Answer: > 128 µg/mL

Question: What about the MIC [3] of the same compound?
Answer: > 128 µg/mL

Question: And the MIC [4]?
Answer: > 128 µg/mL

Question: And the MIC [6]?
Answer: > 128 µg/mL

Question: And the MIC [7]?
Answer: > 128 µg/mL

Question: What about the MIC [8] of the same compound?
Answer: > 128 µg/mL

Question: CC(C)[C@@H](C)/C=C/[C@@H](C)[C@H]1CC[C@H]2C3=C(CC[C@]12C)[C@@]1(C)CCC(=O)C=C1C=C3 [compound 9, ergosta-4,6,8,22E-tetraene-3-one] was tested. Which MIC [5] did it give?
Answer: > 128 µg/mL

Question: And the MIC [1]?
Answer: > 128 µg/mL

Question: And the MIC [2]?
Answer: > 128 µg/mL

Question: What about the MIC [3] of the same compound?
Answer: > 128 µg/mL

Question: What about the MIC [4] of the same compound?
Answer: > 128 µg/mL

Question: And the MIC [6]?
Answer: > 128 µg/mL

Question: And the MIC [7]?
Answer: > 128 µg/mL

Question: And the MIC [8]?
Answer: > 128 µg/mL

Question: What does the source list for CC(C)[C@@H](C)/C=C/[C@@H](C)[C@H]1CC[C@@]2(O)C3=CC(=O)C4=CC(=O)CC[C@]4(C)[C@H]3CC[C@]12C [compound 10, 14α-hydroxyergosta-4,7,22E-triene-3,6-dione]?
Answer: MIC [5]: > 128 µg/mL; IC50 [9]: 111 µM; MIC [1]: > 128 µg/mL; MIC [2]: > 128 µg/mL; MIC [3]: > 128 µg/mL; MIC [4]: > 128 µg/mL; MIC [6]: > 128 µg/mL; MIC [7]: > 128 µg/mL; MIC [8]: > 128 µg/mL

Question: For CC(C)C(C)C=CC(C)C1CCC2C3CC(O)C4=CC(=O)CCC4(C)C3CCC12C (stereo not drawn) [compound 13, ergosta-6α-hydroxy-4,22E-dien-3-one], which MIC [5] is on record?
Answer: > 128 µg/mL

Question: And the MIC [1]?
Answer: > 128 µg/mL

Question: And the MIC [2]?
Answer: > 128 µg/mL

Question: What about the MIC [3] of the same compound?
Answer: > 128 µg/mL

Question: What about the MIC [4] of the same compound?
Answer: > 128 µg/mL

Question: And the MIC [6]?
Answer: > 128 µg/mL

Question: What about the MIC [7] of the same compound?
Answer: > 128 µg/mL

Question: What about the MIC [8] of the same compound?
Answer: > 128 µg/mL

Question: Which results are given for CO[C@@H]1C[C@H]([C@H](C)/C=C/[C@H](C)C(C)C)[C@@]2(C)CC[C@H]3C(=C12)C=CC1=CC(=O)CC[C@@]13C [compound 16, 15β-methoxy-ergosta-4,6,8(14),22E-tetraene-3-one]?
Answer: MIC [5]: > 128 µg/mL; MIC [1]: > 128 µg/mL; MIC [2]: > 128 µg/mL; MIC [3]: > 128 µg/mL; MIC [4]: > 128 µg/mL; MIC [6]: > 128 µg/mL; MIC [7]: > 128 µg/mL; MIC [8]: > 128 µg/mL

Question: For CC(C)[C@@H](C)/C=C/[C@@H](C)[C@H]1CC(=O)C2=C3C=CC4=CC(=O)CC[C@]4(C)[C@@]3(O)CC[C@@]21C [compound 17, ganodermaside C], which MIC [5] is on record?
Answer: > 128 µg/mL

Question: And the MIC [1]?
Answer: > 128 µg/mL

Question: What about the MIC [2] of the same compound?
Answer: > 128 µg/mL

Question: What about the MIC [3] of the same compound?
Answer: > 128 µg/mL

Question: And the MIC [4]?
Answer: > 128 µg/mL

Question: What about the MIC [6] of the same compound?
Answer: > 128 µg/mL

Question: What about the MIC [7] of the same compound?
Answer: > 128 µg/mL

Question: And the MIC [8]?
Answer: > 128 µg/mL

Question: Which MIC [5] does the source give for CC(C)[C@@H](C)/C=C/[C@@H](C)[C@H]1C[C@H](O)C2=C3C=CC4=CC(=O)CC[C@]4(C)C3CC[C@@]21C (stereo partly shown) [compound 18, ganodermaside A] here?
Answer: > 128 µg/mL

Question: And the MIC [1]?
Answer: > 128 µg/mL

Question: What about the MIC [2] of the same compound?
Answer: > 128 µg/mL

Question: What about the MIC [3] of the same compound?
Answer: > 128 µg/mL

Question: What about the MIC [4] of the same compound?
Answer: > 128 µg/mL

Question: And the MIC [6]?
Answer: > 128 µg/mL

Question: And the MIC [7]?
Answer: > 128 µg/mL

Question: And the MIC [8]?
Answer: > 128 µg/mL
